Source: EP0450097B1, “BENZOHETEROCYCLIC COMPOUNDS” (OTSUKA PHARMACEUTICAL CO., LTD., priority 1989, dated 1991)

Key:
SD rats = assay: Anti-antidiuretic activity (effect on endogenous ADH), amount of urine; format: in vivo; details: for ED (3-fold urine volume): Rattus norvegicus, iv, read-out: ED₃
Description: […] During this measurement, the rats are allowed to take water and feed freely.
The amount of urine of control rats (solvent-treated group) is regarded as 100 %, and the results are expressed as ED₃ value, which is the dose of the test compound to be required to excrete the urine by three times than that of the control rats.

V₂ receptor = molecular target: T1, V₂ receptor (Rattus norvegicus, UniProt Q00788); assay: V₂ receptor binding assay ([³H]-Arg-vasopressin, rat kidney plasma membrane preparations); details: 4°C for 3 hours
T1 construct: Using rat kidney plasma membrane preparations; from tissue; host or cells: rat kidney plasma membranes
Summary of the method: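 IC₅₀ reflects displacement of [³H]-vasopressin bound to rat kidney plasma membrane preparations, with excess vasopressin (10⁻⁶ M) defining nonspecific binding. Membrane-bound label separated by glass-filter (GF/F) filtration and measured by scintillation counting.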

V₁ receptor = molecular target: T2, V₁ receptor (Rattus norvegicus, UniProt P30560); assay: V₁ receptor binding assay ([³H]-Arg-vasopressin, rat liver plasma membrane preparations); details: 37°C for 10 minutes
T2 construct: Using rat liver plasma membrane preparations; from tissue; host or cells: rat liver plasma membranes
Protocol: Using rat liver plasma membrane preparations prepared according to Ichihara's method [cf: Akira Ichihara, J. Bio. Chem., 258, 9283 (1983)], the plasma membrane (50000dpm, 2x10⁻¹⁰ M) of [³H]-Arg-vasopressin and a test compound (60 µg, 10⁻⁸-10⁻⁴ M) are incubated at 37°C for 10 minutes in 100 mM Tris-HCl buffer (pH: 8.0, 250 µl) containing 5 mM MgCl₂, 1 mM EDTA and 0.1 % BSA. After incubation, the mixture is filtered three times using the glass filter (GF/F) so as to separate the membrane preparation combined with vasopressin and then washed with the buffer (5 ml). This glass filter is taken out and mixed with liquid scintillation cocktail. The amount of [³H]-vasopressin combined with the membrane is measured by liquid scintillation counter and the rate of the inhibitory effect of the test compound is estimated according to the following equation. Rate of the inhibitory effect (%) = 100 -(C1 - B1)/(C0 - B1)X 100 [formula] C¹: The amount of [³H]-vasopressin combined with the membrane in the presence of the test compound (in prescribed amount). C⁰: The amount of [³H]-vasopressin combined with the membrane in the absence of the test compound. B¹: The amount of [³H]-vasopressin combined with the membrane in the presence of the excess amount of vasopressin (10⁻⁶ M).
The results are expressed as IC₅₀ values, which is the concentration of the test compound required to achieve the inhibitory effect in the rate of 50 %.

[1] = administered into a caudal vein, urine collected for 2 hours, dose to excrete the urine by three times that of control rats, solvent dimethylformamide

T2 sequence (P30560 whole entry): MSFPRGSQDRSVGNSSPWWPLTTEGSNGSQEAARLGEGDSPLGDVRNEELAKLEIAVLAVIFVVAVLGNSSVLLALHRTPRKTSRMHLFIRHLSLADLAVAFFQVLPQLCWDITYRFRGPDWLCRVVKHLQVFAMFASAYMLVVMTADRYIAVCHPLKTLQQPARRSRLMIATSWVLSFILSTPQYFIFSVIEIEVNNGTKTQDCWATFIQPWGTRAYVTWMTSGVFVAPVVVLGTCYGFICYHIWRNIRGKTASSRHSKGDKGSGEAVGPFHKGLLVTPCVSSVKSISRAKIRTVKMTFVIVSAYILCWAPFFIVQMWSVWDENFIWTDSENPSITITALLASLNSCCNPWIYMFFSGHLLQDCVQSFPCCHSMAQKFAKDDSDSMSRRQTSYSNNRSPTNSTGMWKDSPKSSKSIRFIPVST
T1 sequence (Q00788 whole entry): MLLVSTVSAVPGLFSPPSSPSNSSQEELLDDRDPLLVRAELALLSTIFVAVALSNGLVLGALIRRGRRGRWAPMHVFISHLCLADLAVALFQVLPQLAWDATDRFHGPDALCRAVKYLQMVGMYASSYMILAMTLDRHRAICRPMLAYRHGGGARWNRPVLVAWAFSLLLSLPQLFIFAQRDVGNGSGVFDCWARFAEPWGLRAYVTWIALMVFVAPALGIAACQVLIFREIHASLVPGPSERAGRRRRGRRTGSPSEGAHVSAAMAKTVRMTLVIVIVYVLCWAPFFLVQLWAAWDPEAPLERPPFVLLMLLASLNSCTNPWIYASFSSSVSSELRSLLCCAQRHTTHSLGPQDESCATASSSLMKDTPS

Row | Structure (SMILES) | ED (3-fold urine volume) (SD rats; [1]) [mg/kg] | IC50 (V₂ receptor) [nM] | IC50 (V₁ receptor) [nM] | ED₃ (SD rats; [1]) [mg/kg] | ED₃ (SD rats; as E3, but physiological saline solution used as solvent instead of dimethylformamide)
1 | Cc1cccc(C(=O)Nc2ccc(C(=O)N3CCCc4ccccc43)cc2)c1C [compound 6] | 10 | 76 |  |  | 
2 | Cc1cccc(C(=O)Nc2ccc(C(=O)N3CCCCc4ccccc43)cc2)c1C [compound 33] | 1.9 | 7 | 92 |  | 
3 | O=C(Nc1ccc(C(=O)N2CCCC(O)c3ccccc32)cc1)c1cc(Cl)cc(Cl)c1 (centres unmarked) [compound 178] |  | 12 |  | 4.2 | 
4 | Cc1ccccc1C(=O)Nc1ccc(C(=O)N2CCCC(N(C)C)c3ccccc32)cc1 (centres unmarked) [compound 249] |  |  |  |  | 0.4 ^*) mg/kg
5 | Cc1ccccc1C(=O)Nc1ccc(C(=O)N2CCCC(OCC(=O)N3CCS(=O)(=O)CC3)c3ccccc32)cc1 (centres unmarked) [compound 286] |  | 19 | 400 |  | 
6 | CNC1CCCN(C(=O)c2ccc(NC(=O)c3ccccc3C)cc2)c2ccc(Cl)cc21 (centres unmarked) [compound 287] |  | 7 | 64 |  | 
7 | CC(=O)N1CCN(C(=O)COC2CCCN(C(=O)c3ccc(NC(=O)c4ccccc4C)cc3)c3ccccc32)CC1 (centres unmarked) [compound 288] |  | 15 | 260 |  | 
8 | Cc1ccccc1C(=O)Nc1ccc(C(=O)N2CCCC(OCC(=O)NCc3ccncc3)c3ccccc32)cc1 (centres unmarked) [compound 290] |  | 21 | 210 |  | 
9 | Cc1ccccc1C(=O)Nc1ccc(C(=O)N2CCCC(OCC(=O)N(C)CCO)c3ccccc32)cc1 (centres unmarked) [compound 293] |  | 65 | 190 |  | 
10 | CN(C)c1ccccc1C(=O)Nc1ccc(C(=O)N2CCCC(N(C)C)c3ccccc32)cc1 (centres unmarked) [compound 298] |  | 100 | 290 |  | 
11 | CNC1CCCN(C(=O)c2ccc(NC(=O)c3ccccc3Cl)cc2)c2ccc(Cl)cc21 (centres unmarked) [compound 302] |  | 11 | 71 |  | 
12 | Cc1ccccc1C(=O)Nc1ccc(C(=O)N2CCCC(N(C)C)c3cc(Cl)ccc32)cc1 (centres unmarked) [compound 303] |  | 25 | 190 |  | 
13 | CN(C)C1CCCN(C(=O)c2ccc(NC(=O)c3ccccc3Cl)cc2)c2ccc(Cl)cc21 (centres unmarked) [compound 304] |  | 24 | 210 |  | 
14 | CCN(CC(=O)Nc1ccc(C(=O)N2CCCC(NC)c3cc(Cl)ccc32)cc1)c1ccccc1 (centres unmarked) [compound 307] |  | 10 | 24 |  | 
15 | CCN(CC(=O)Nc1ccc(C(=O)N2CCCC(N(C)C)c3cc(Cl)ccc32)cc1)c1ccccc1 (centres unmarked) [compound 308] |  | 23 | 110 |  | 
16 | CN(C)C1CCCN(C(=O)c2ccc(NC(=O)c3ccccc3Br)cc2)c2ccccc21 (centres unmarked) [compound 309] |  | 15 | 430 |  | 
17 | Cc1ccccc1C(=O)Nc1ccc(C(=O)N2CCCC(NC3CC3)c3cc(Cl)ccc32)cc1 (centres unmarked) [compound 310] |  | 8 | 65 |  | 
18 | O=C(Nc1ccc(C(=O)N2CCCC(NC3CC3)c3cc(Cl)ccc32)cc1)c1ccccc1Cl (centres unmarked) [compound 311] |  | 13 | 78 |  | 
19 | CC(C)NCCCCOc1ccccc1C(=O)Nc1ccc(C(=O)N2CCCC(O)c3ccccc32)cc1 (centres unmarked) [compound 312] |  | 290 | 56 |  | 
20 | CCN(CC(=O)Nc1ccc(C(=O)N2CCCC(OCC(=O)N(C)C)c3ccccc32)cc1)c1ccccc1 (centres unmarked) [compound 313] |  | 12 | 32 |  | 
21 | CN(C)C1CCCN(C(=O)c2ccc(NC(=O)CNc3ccccc3Cl)cc2)c2ccccc21 (centres unmarked) [compound 315] |  | 25 | 380 |  | 
22 | Cc1ccccc1NCC(=O)Nc1ccc(C(=O)N2CCCC(N(C)C)c3ccccc32)cc1 (centres unmarked) [compound 316] |  | 60 | 470 |  | 
23 | CNC1CCCN(C(=O)c2ccc(NC(=O)c3ccccc3Cl)c(OC)c2)c2ccc(Cl)cc21 (centres unmarked) [compound 321] |  | 12 | 59 |  | 
24 | COc1cc(C(=O)N2CCCC(NC3CC3)c3cc(Cl)ccc32)ccc1NC(=O)c1ccccc1Cl (centres unmarked) [compound 322] |  | 25 | 44 |  | 
25 | CNC1CCCN(C(=O)c2ccc(NC(=O)c3ccccc3C)c(OC)c2)c2ccc(Cl)cc21 (centres unmarked) [compound 323] |  | 14 | 64 |  | 
